Experimental data: ChEMBL document CHEMBL3627709, “Discovery of a Novel, Potent Spirocyclic Series of γ-Secretase Inhibitors” (J Med Chem, 2015)
The source made the active and inactive calls. No cut-off for these calls is given here.

How the values were obtained:
[1] = target: T1, Cytochrome P450 2C9 (Homo sapiens, UniProt P11712); test: Inhibition of CYP2C9 (unknown origin) co-incubated with substrate and protein; format: ADME
[2] = target: T2, Cytochrome P450 3A4 (Homo sapiens, UniProt P08684); test: Inhibition of CYP3A4 (unknown origin) co-incubated with substrate and protein; format: ADME
[3] = target: Gamma-secretase; test: Inhibition of gamma-secretase in HEK293 cell membranes using SPC99-Lon as substrate assessed as formation of amyloid beta 40 after 1 hr by electrochemiluminescence-based immunoassay; set-up: species or system Homo sapiens
[4] = target: Voltage-gated inwardly rectifying potassium channel KCNH2 (Homo sapiens, UniProt Q12809); test: Inhibition of human ERG
[5] = target: T3, Cytochrome P450 2D6 (Homo sapiens, UniProt P10635); test: Inhibition of CYP2D6 (unknown origin) preincubated with protein for 30 mins followed by substrate addition; format: ADME
[6] = target: T3, Cytochrome P450 2D6; test: Inhibition of CYP2D6 (unknown origin) co-incubated with substrate and protein; format: ADME
[7] = target: T1, Cytochrome P450 2C9; test: Inhibition of CYP2C9 (unknown origin) preincubated with protein for 30 mins followed by substrate addition; format: ADME
[8] = target: T2, Cytochrome P450 3A4; test: Inhibition of CYP3A4 (unknown origin) preincubated with protein for 30 mins followed by substrate addition; format: ADME
[9] = target: Gamma-secretase; test: Inhibition of gamma-secretase in HEK293 cells using human APP Swedish/London double mutant as substrate assessed as formation of amyloid beta 40 after 5 to 6 hrs by sandwich immunoassay; format: cell-based
[10] = target: Gamma-secretase; test: Inhibition of gamma-secretase in HEK293 cells using human APP Swedish/London double mutant as substrate assessed as formation of amyloid beta 42 after 5 to 6 hrs by sandwich immunoassay; format: cell-based
[11] = tested on: Rattus norvegicus; test: Antialzheimer activity in Sprague-Dawley rat assessed as reduction of total amylod beta level at 10 mg/kg, po after 3 hrs by immunoassay relative to vehicle-treated control; format: functional, organism-based
[12] = Ratio of drug level in brain to plasma in Sprague-Dawley rat at 10 mg/kg, po; format: ADME, organism-based; details: brain and plasma, read-out: BPR
[13] = (§1) AUC (0 to 6 hrs) in Sprague-Dawley rat at 10 mg/kg, po by LC-MS/MS analysis; format: ADME, organism-based; set-up: time < 6 hr, dose 10 mg/kg, route oral; details: Sprague-Dawley, in vivo
[14] = tested on: Rattus norvegicus; test: Antialzheimer activity in Sprague-Dawley rat assessed as reduction of total amylod beta level in plasma at 10 mg/kg, po after 3 hrs by immunoassay relative to vehicle-treated control; format: functional; set-up: scale not given: the % may be the effect or the level left
[15] = tested on: Rattus norvegicus; test: Antialzheimer activity in Sprague-Dawley rat assessed as reduction of total amylod beta level in cerebrospinal fluid at 10 mg/kg, po after 3 hrs by immunoassay relative to vehicle-treated control; format: functional; set-up: scale not given: the % may be the effect or the level left
[16] = tested on: Rattus norvegicus; test: as §1; format: ADME, organism-based; set-up: time < 6 hr, dose 10 mg/kg, route oral; details: in vivo, 6 h, BLD = below limit of detection
[17] = organism: Homo sapiens; test: Selectivity ratio of IC50 for human presenilin-2 to IC50 for human presenilin-1

T2 sequence (P08684 whole entry): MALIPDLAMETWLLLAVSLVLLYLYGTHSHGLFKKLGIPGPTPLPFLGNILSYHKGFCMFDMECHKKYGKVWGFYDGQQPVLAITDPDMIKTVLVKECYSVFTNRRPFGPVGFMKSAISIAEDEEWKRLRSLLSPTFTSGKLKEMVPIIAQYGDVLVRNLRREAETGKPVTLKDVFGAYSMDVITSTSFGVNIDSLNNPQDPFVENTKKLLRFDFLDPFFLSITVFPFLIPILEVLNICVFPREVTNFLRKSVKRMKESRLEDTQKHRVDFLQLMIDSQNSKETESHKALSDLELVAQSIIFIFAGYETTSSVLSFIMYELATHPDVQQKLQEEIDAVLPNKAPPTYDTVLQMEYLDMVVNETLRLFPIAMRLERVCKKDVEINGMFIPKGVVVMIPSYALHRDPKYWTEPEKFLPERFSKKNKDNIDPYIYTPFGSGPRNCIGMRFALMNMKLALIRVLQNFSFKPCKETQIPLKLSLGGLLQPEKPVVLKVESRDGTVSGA
Voltage-gated inwardly rectifying potassium channel KCNH2, sequence (Q12809 whole entry): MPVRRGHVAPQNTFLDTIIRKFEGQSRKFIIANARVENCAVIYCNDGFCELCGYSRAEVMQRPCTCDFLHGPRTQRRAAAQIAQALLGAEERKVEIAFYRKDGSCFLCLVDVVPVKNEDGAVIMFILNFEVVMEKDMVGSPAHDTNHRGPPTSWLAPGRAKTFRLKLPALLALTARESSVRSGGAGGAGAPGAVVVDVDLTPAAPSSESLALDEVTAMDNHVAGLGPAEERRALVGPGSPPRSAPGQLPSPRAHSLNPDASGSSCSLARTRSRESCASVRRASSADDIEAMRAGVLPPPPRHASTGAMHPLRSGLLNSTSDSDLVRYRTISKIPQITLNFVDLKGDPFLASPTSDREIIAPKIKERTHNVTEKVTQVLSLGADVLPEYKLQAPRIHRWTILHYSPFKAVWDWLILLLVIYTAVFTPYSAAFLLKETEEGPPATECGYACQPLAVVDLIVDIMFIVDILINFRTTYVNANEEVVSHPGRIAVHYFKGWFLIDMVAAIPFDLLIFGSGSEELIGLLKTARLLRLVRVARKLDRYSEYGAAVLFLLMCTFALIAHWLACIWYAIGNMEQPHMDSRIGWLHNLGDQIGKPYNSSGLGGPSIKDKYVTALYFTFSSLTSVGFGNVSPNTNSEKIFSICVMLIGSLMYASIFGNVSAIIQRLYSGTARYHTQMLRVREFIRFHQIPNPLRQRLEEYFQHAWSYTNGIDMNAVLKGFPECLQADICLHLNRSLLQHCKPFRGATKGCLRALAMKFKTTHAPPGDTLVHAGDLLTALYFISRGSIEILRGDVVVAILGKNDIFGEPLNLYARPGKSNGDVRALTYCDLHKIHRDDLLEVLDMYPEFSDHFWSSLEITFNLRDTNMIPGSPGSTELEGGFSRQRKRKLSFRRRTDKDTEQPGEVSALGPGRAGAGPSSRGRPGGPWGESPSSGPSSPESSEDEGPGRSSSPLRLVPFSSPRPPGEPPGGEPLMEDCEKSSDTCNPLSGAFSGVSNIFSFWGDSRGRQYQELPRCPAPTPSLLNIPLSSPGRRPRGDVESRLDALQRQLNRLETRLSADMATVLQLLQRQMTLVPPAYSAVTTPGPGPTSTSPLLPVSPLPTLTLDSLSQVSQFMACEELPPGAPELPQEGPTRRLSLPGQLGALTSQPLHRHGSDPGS
T3 sequence (P10635 whole entry): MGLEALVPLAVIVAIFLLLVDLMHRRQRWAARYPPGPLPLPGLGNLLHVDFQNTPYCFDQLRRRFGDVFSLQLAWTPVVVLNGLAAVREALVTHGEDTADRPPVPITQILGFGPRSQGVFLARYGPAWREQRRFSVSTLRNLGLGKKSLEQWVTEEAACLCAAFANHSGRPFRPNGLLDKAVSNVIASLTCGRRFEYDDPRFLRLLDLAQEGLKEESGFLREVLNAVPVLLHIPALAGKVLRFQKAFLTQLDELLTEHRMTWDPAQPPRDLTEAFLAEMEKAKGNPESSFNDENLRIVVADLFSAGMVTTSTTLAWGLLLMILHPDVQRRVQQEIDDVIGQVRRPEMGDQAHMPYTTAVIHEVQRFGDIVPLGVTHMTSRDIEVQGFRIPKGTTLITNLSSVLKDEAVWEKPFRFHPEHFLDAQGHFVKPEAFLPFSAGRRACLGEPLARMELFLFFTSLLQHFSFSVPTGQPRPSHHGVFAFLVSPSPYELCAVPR
T1 sequence (P11712 whole entry): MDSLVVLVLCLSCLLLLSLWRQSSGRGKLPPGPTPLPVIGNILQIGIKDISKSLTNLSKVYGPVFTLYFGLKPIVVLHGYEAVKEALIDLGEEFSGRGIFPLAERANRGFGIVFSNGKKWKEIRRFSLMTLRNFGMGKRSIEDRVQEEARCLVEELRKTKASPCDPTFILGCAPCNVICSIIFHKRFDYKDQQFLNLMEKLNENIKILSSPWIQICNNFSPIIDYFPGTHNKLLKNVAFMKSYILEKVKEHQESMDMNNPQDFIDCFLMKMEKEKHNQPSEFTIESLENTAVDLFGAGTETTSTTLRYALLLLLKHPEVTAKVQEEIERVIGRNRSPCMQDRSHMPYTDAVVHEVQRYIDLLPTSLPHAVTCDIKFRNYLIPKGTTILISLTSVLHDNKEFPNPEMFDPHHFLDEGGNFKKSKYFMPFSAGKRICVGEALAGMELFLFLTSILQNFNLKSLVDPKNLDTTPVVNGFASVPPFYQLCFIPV

Row | IC50 [1] [nM] | IC50 [2] [nM] | IC50 [5] [nM] | IC50 [6] [nM] | IC50 [7] [nM] | IC50 [8] [nM] | Kp [12] | AUC(0-t) at 6 h [13] [µM·h] | Ratio IC50 [17] | SMILES | IC50 [3] [nM] | inhibition (INH) [4] | IC50 [9] [nM] | IC50 [10] [nM] | Activity [11] | Activity [14] [%] | Activity [15] [%] | AUC [16]
1 | > 20000 | > 20000 | > 20000 | > 20000 | > 20000 | > 20000 | 0.2 | 3.31 |  | O=S1(=O)CCC2(CCC[C@@]3(S(=O)(=O)c4ccc(Cl)cc4)c4c(F)ccc(F)c4OC[C@@H]23)CC1 |  | Not Active |  |  | inactive |  |  | 
2 |  |  |  |  |  |  |  |  |  | CC1(C)OCC2(CCC[C@@]3(S(=O)(=O)c4ccc(Cl)cc4)c4c(F)ccc(F)c4OC[C@@H]23)CO1 | 66.6 | Not Active | 33 | 12 |  |  |  | 
3 | < 300 | 9600 | > 30000 | > 30000 | < 300 | 3500 |  |  |  | O=S(=O)(N[C@@H]1CC[C@@]2(S(=O)(=O)c3ccc(Cl)cc3)c3c(F)ccc(F)c3OC[C@H]2C1)C(F)(F)F |  |  |  |  |  |  |  | 
4 | < 300 |  | > 30000 | > 30000 | < 300 |  | 0.2 | 2.35 |  | O=S(=O)(N[C@H]1CC[C@@](c2cc(F)ccc2F)(S(=O)(=O)c2ccc(Cl)cc2)CC1)C(F)(F)F |  |  |  |  |  | 71 |  | 
5 | 23400 | 11000 | > 30000 | > 30000 | 21100 | 11500 |  |  |  | O=S(=O)(c1ccc(Cl)cc1)[C@@]12CCCC(CO)(CO)[C@@H]1COc1c(F)ccc(F)c12 | 251 | Not Active |  |  |  |  |  | 
6 |  |  |  |  |  |  |  |  |  | O=S(=O)(c1ccc(Cl)cc1)[C@@]12CCC[C@]3(CCOC3)[C@@H]1COc1c(F)ccc(F)c12 (stereo in doubt; (+)-14b) | 142 |  | 104 | 63 |  |  |  | 
7 |  |  |  |  |  |  |  |  |  | O=S(=O)(c1ccc(Cl)cc1)[C@@]12CCCC3(COC3)[C@@H]1COc1c(F)ccc(F)c12 | 10.1 | Not Active | 13 | 7 |  |  |  | BLD
8 | 2500 | > 30000 | 30000 | 17900 | 4900 | 21400 |  |  |  | O=S(=O)(NC[C@@H]1OCC[C@@]2(S(=O)(=O)c3ccc(Cl)cc3)c3c(F)ccc(F)c3OC[C@@H]12)C(F)(F)F |  |  |  |  |  |  |  | 
9 |  |  |  |  |  |  |  |  |  | O=S(=O)(c1ccc(Cl)cc1)[C@@]12CCCC3(CCSCC3)[C@@H]1COc1c(F)ccc(F)c12 | 26.4 | Not Active | 17 | 5 | inactive |  |  | BLD
10 |  |  |  |  |  |  |  |  | 1 | O=S(=O)(c1ccc(Cl)cc1)C1(c2cc(F)ccc2F)CCCCC1 | 14.1 |  | 41 | 27 | inactive |  |  | BLD

Row | SMILES | IC50 [1] [nM] | IC50 [2] [nM] | IC50 [5] [nM] | IC50 [6] [nM] | IC50 [7] [nM] | IC50 [8] [nM] | Kp [12] | AUC(0-t) at 6 h [13] [µM·h] | Ratio IC50 [17] | IC50 [3] [nM] | inhibition (INH) [4] | IC50 [9] [nM] | IC50 [10] [nM] | Activity [11] | Activity [14] [%] | Activity [15] [%] | AUC [16]
11 | O=C1OCC[C@]12CCC[C@@]1(S(=O)(=O)c3ccc(Cl)cc3)c3c(F)ccc(F)c3OC[C@@H]21 | > 30000 | > 30000 | > 30000 | > 30000 | > 30000 | > 30000 |  |  |  | 228 | Not Active |  |  |  |  |  | 
12 | O=S(=O)(N1CC[C@]2(CCC[C@@]3(S(=O)(=O)c4ccc(Cl)cc4)c4c(F)ccc(F)c4OC[C@@H]23)C1)C(F)(F)F | > 30000 | > 30000 | > 30000 | > 30000 | > 30000 | > 20000 |  |  |  | 23.3 | Not Active | 13 | 8 |  |  |  | 
13 | O=S(=O)(c1ccc(Cl)cc1)[C@@]12CCC[C@]3(CCOC3)[C@@H]1COc1c(F)ccc(F)c12 (stereo in doubt; (-)-14b) | > 20000 | > 20000 | > 20000 | > 20000 | > 20000 | > 20000 |  |  |  | 13.9 | Not Active | 6 | 3 |  | 29 | 10 | 
